Data published in paper PMC8232266, “Lanolin-Based Synthetic Membranes for Transdermal Permeation and Penetration Drug Delivery Assays” (Membranes, 2021).
“Also recorded” adds a separate entry of the source. Read-outs that look alike come from different tables or passages of the source. Marks after values point to notes of the source that are not given here.

Columns and labels:
[1] = infinite dose
[2] = Infinite-dose kinetic permeation assay, vertical Franz diffusion cells, 5% SEL lanolin membrane; assay type: in vitro ADME
Protocol: (§1) For the preparation of the membranes, the procedure described by Pullmannová, et al. was followed. […] Next, 300 µL of the lipid solution was spread onto the pre-weighed NP membranes (≈15 mg lanolin) in a three-step process. The solvent was then evaporated under a stream of N2. The lipid membranes prepared were vacuum-dried over […] in a desiccator and were stored in a fridge at 5 °C for 24 h. Prior to use, the lanolin-based membranes were then heated to 75 °C, equilibrated for 10 min, and then cooled down slowly (~3 h) to 32 °C. The last part of the cooling-heating cycle was incubation for 24 h at 32 °C. Using a skin pHmeter (Sebumeter pH 900, Courage + Khazaka, Cologne, Germany), the pH of the membranes was determined.
(§2) Lastly, the entire system was clamped shut.

[3] = Finite-dose penetration test, Franz diffusion cells, Nuclepore-SEL membrane; assay type: in vitro ADME; details: finite dose 20 µL, 24 h, Figure 1
[4] = Infinite-dose kinetic permeation assay, vertical Franz diffusion cells, 5% WEL lanolin membrane; assay type: in vitro ADME; details: DS 3% / LIDO 2% in PG; for J (flux): Ord 0 model
Protocol: as §1, §2

[5] = Infinite-dose kinetic permeation assay, vertical Franz diffusion cells, Nuclepore membrane; assay type: in vitro ADME; details: NP, DS 3% / LIDO 2% in PG; for J (flux): Higuchi model
Text: as §2

Which “Kinetics of Release (best-fit model)” value ([1]; SKIN, DS 3% / LIDO 2% in PG) does the source give for O=C(O)Cc1ccccc1Nc1c(Cl)cccc1Cl [Diclofenac Sodium, Diclofenac sodium] here?
Its value is “Ord 0”.

And the “J (flux)” value ([1]; SKIN, Ord 0 model, DS 3% / LIDO 2% in PG)?
Its value is 3.94 µg/cm^2/h.

And the “permeability (percentage permeated through the skin)” value ([1]; pig skin, at 30 h)?
Its value is 0.83 ± 0.42%.

What about the “Kinetics of Release (best-fit model)” value ([2]; DS 3% / LIDO 2% in PG) of the same molecule?
The value was “Ord 0”.

And the “J (flux)” value ([2]; Ord 0 model, DS 3% in PG)?
Its value is 30.40 * µg/cm^2/h.

And the “permeation through Nuclepore-SEL membrane compared with skin” value [3]?
The value was “insignificant difference compared with the skin”.

What about the “Kinetics of Release (best-fit model)” value ([4]; listed as DS) of the same molecule?
Its value is “zero-order kinetics; also recorded: Ord 0”.

And the “J (flux)” value [4]?
Its value is 6.18 µg/cm^2/h.

What about the “Kinetics of Release (best-fit model)” value [5] of the same molecule?
Its value is “Higuchi”.

And the “J (flux)” value [5]?
Its value is 2307.12 * µg/cm^2/h^½.

Which “J (flux)” value ([2]; Higuchi model, LIDO 2% in PG) does the source give for CCN(CC)CC(=O)Nc1c(C)cccc1C [Lidocaine, lidocaine] here?
The value was 343.05 * µg/cm^2/h^½.

What about the “J (flux)” value [4] of the same molecule?
Its value is 4.85 µg/cm^2/h.

What about the “Kinetics of Release (best-fit model)” value [5] of the same molecule?
Its value is “Higuchi”.

What about the “J (flux)” value [5] of the same molecule?
The value was 1360.27 * µg/cm^2/h^½.
